Several values for one entry are separate records, joined by “and”; a condition that tells them apart may be missing. Equal values may be shown once. Read-outs that look alike come from different tables or passages of the source.
What was measured:
[1] = system: C. albicans ATCC 10231; test: Antimicrobial activity, broth microdilution MIC/MBC; type: cell-based, Candida albicans; conditions: C. albicans ATCC 10231, 24 h at 37 °C, at least 90% growth inhibition; nd—not detected
[2] = system: E. coli ATCC 8739; test: as above; type: cell-based, Escherichia coli; conditions: nd—not detected; for MIC (%): E. coli ATCC 8739, 24 h at 37 °C, at least 90% growth inhibition; for MBC (%): E. coli ATCC 8739
[3] = system: Lepidium sativum L. roots; conditions: 24 h incubation, mean(±SD), n = 3
[4] = system: S. aureus ATCC 6538; test: Antimicrobial activity, broth microdilution MIC/MBC; type: cell-based, Staphylococcus aureus; conditions: nd—not detected; for MIC (%): S. aureus ATCC 6538, 24 h at 37 °C, at least 90% growth inhibition
[5] = system: Lepidium sativum L. seeds; conditions: 24 h incubation, mean(±SD), n = 3
[6] = 0.01% (w/w) compound in the medium
[7] = 0.03% (w/w) compound in the medium
[8] = 0.05% (w/w) compound in the medium
[9] = 0.10% (w/w) compound in the medium
[10] = 0.30% (w/w) compound in the medium
[11] = 0.50% (w/w) compound in the medium
[12] = 1.00% (w/w) compound in the medium
[13] = 2.00% (w/w) compound in the medium
[14] = 3.00% (w/w) compound in the medium
[15] = 4.00% (w/w) compound in the medium
[16] = 5.00% (w/w) compound in the medium

Compound	MIC (%) [1]	MIC (%) [2]	MBC (%) [2]	Inhibition of the root growth in pregerminated Lepidium sativum seeds (IRG, %) [3, 6]	Inhibition of the root growth in pregerminated Lepidium sativum seeds (IRG, %) [3, 7]	Inhibition of the root growth in pregerminated Lepidium sativum seeds (IRG, %) [3, 8]	Inhibition of the root growth in pregerminated Lepidium sativum seeds (IRG, %) [3, 9]	Inhibition of the root growth in pregerminated Lepidium sativum seeds (IRG, %) [3, 10]	Inhibition of the root growth in pregerminated Lepidium sativum seeds (IRG, %) [3, 11]	Inhibition of the root growth in pregerminated Lepidium sativum seeds (IRG, %) [3, 12]	Inhibition of the root growth in pregerminated Lepidium sativum seeds (IRG, %) [3, 13]	Inhibition of the root growth in pregerminated Lepidium sativum seeds (IRG, %) [3, 14]	Inhibition of the root growth in pregerminated Lepidium sativum seeds (IRG, %) [3, 15]	Inhibition of the root growth in pregerminated Lepidium sativum seeds (IRG, %) [3, 16]	MIC (%) [4]	Inhibition of the Lepidium sativum seeds germination (ISG, %) [5, 6]	Inhibition of the Lepidium sativum seeds germination (ISG, %) [5, 7]	Inhibition of the Lepidium sativum seeds germination (ISG, %) [5, 8]	Inhibition of the Lepidium sativum seeds germination (ISG, %) [5, 9]	Inhibition of the Lepidium sativum seeds germination (ISG, %) [5, 10]	other results
N=C(N)NCCC[C@H](N)C(=O)O.OCCN(CCO)CCO [[TEA][Arg]]	0.94%	3.75%	3.75%	9.0(±1.9) %	20.6(±1.8) %	31.2(±1.9) %	41.9(±1.3) %	53.8(±1.3) %	56.5(±1.4) %	65.4(±1.0) %	74.4(±0.7) %	84.7(±0.6) %	93.7(±0.5) %	98.3(±0.3) %	3.75%	0.0(±0.0) %	0.0(±0.0) %	0.0(±0.0) %	0.0(±0.0) %	1.2(±0.8) %	MBC (%) ([4]; S. aureus ATCC 6538): 3.75%; Inhibition of the Lepidium sativum seeds germination (ISG, %) [5, 11]: 5.5(±0.5) %; Inhibition of the Lepidium sativum seeds germination (ISG, %) [5, 12]: 15.5(±0.5) %; Inhibition of the Lepidium sativum seeds germination (ISG, %) [5, 13]: 25.5(±2.1) %; Inhibition of the Lepidium sativum seeds germination (ISG, %) [5, 14]: 32.7%; Inhibition of the Lepidium sativum seeds germination (ISG, %) [5, 15]: 58.2(±1.2) %
NC(CCC(=O)O)C(=O)O.OCCN(CCO)CCO (stereo not shown) [[TEA][Glu]]	15%	7.50%	15%	0.0(±0.0) % and 0%	0.0(±0.0) % and 0%	4.0(±2.4) %	4.9(±2.7) %	5.8%	21%	36.3(±2.2) %	44.5(±1.8) %	61.4(±1.0) %	79.4(±0.8) %	82.4(±0.5) %	15%	0.0(±0.0) %	0.0(±0.0) %	1.8(±0.5) %	3.6(±0.8) %	5.4(±1.3) %	Inhibition of the Lepidium sativum seeds germination (ISG, %) [5, 11]: 8.9(±0.8) %; Inhibition of the Lepidium sativum seeds germination (ISG, %) [5, 12]: 10.7(±1.3) %; Inhibition of the Lepidium sativum seeds germination (ISG, %) [5, 13]: 10.7(±1.3) %; Inhibition of the Lepidium sativum seeds germination (ISG, %) [5, 14]: 14.3%; Inhibition of the Lepidium sativum seeds germination (ISG, %) [5, 15]: 21.4(±0.5) %; Inhibition of the Lepidium sativum seeds germination (ISG, %) [5, 16]: 33.9%
